Data reported in patent publication US4471131A, “Novel silyl esters of N-phosphonomethylglycine” (Monsanto Company, priority 1983, dated 1984).

What was measured:
Test in all cases: post-emergence herbicidal activity, greenhouse
Format in all cases: in vivo
Soybean = settings: Table III, formulated in anhydrous tetrahydrofuran
Description: (§1) A good grade of top soil is placed in aluminum pans having holes in the bottom and compacted to a depth of 0.95 to 1.27 cm. from the top of the pan. A predetermined number of seeds of each of several dicotyledonous and moncotyledonous annual plant species and/or vegetative propagules for the perennial plant species were placed on the soil and pressed into the soil surface. The seeds and/or vegetative propagules are covered with soil and leveled. The pans are then placed on a sand bench in the greenhouse and watered from below as needed. After the plants reach the desired age (two to three weeks), each pan, except for the control pans, is removed individually to a spraying chamber and sprayed by means of an atomizer at the rates noted. In the spray solution is an amount of an emulsifying agent mixture to give a spray solution or suspension which contains about 0.4% by weight of the emulsifier. The spray solution or suspension contains a sufficient amount of the candidate chemical in order to give application rates corresponding to those set forth in the tables. The pans were returned to the greenhouse and watered as before and the injury to the plants as compared to the control is observed at approximately two and four weeks and the results recorded. In the tables, WAT means "weeks after treatment."
(§2) The post-emergent herbicidal activity index used in Tables II and III is as follows:
(§3) The plant species utilized in these tests are identified by letter in accordance with the following legend: […]

Pennsylvania Smartweed = settings: formulated in anhydrous tetrahydrofuran
Description: as §1, §2, §3

Downy Brome = settings: formulated in anhydrous tetrahydrofuran
Description: as §1, §2, §3

Velvetleaf = settings: formulated in anhydrous tetrahydrofuran
Description: as §1, §2, §3

Barnyardgrass = settings: formulated in anhydrous tetrahydrofuran
Description: as §1, §2, §3

Rice = settings: Table III, formulated in anhydrous tetrahydrofuran
Description: as §1, §2, §3

Canada Thistle = settings: Table II, formulated in anhydrous tetrahydrofuran
Description: as §1, §2, §3

Panicum Spp = settings: Table III, formulated in anhydrous tetrahydrofuran
Description: as §1, §2, §3

Large Crabgrass = settings: Table III, 2 WAT, formulated in anhydrous tetrahydrofuran
Description: as §1, §2, §3

With `CCCCOC(=O)CNCP(=O)(O)O[Si](C)(C)C(C)(C)C` [Ex. 3, Glycine, N-((([(1,1-Dimethylethyl)Dimethylsilyl]oxy)Hydroxyphosphinyl)Methyl)-, Butyl Ester] the “Plant Response Index (L)” value (Soybean; 2 WAT, 1.1 kg/h) was 2 (50-74% inhibition), the “Plant Response Index (L)” value (Soybean; 2 WAT, 5.6 kg/h) was 2 (50-74% inhibition) and the “Plant Response Index (L)” value (Soybean; 2 WAT, .28 kg/h) was 1 (25-49% inhibition). For the same compound, the “Plant Response Index (L)” value (Soybean; 4 WAT, 1.1 kg/h) was 1 (25-49% inhibition), the “Plant Response Index (L)” value (Soybean; 4 WAT, 5.6 kg/h) was 2 (50-74% inhibition) and the “Plant Response Index (L)” value (Soybean; 4 WAT, .28 kg/h) was 0 (0-24% inhibition). The “Plant Response Index (F)” value (Pennsylvania Smartweed; Table II, 2 WAT, 5.6 kg/h) was 1 (25-49% inhibition), the “Plant Response Index (F)” value (Pennsylvania Smartweed; Table II, 2 WAT, 11.2 kg/h) was 2 (50-74% inhibition) and the “Plant Response Index (F)” value (Pennsylvania Smartweed; Table II, 4 WAT, 5.6 kg/h) was 1 (25-49% inhibition). The “Plant Response Index (F)” value (Pennsylvania Smartweed; Table II, 4 WAT, 11.2 kg/h) was 3 (75-99% inhibition), the “Plant Response Index (F)” value (Pennsylvania Smartweed; Table III, 2 WAT, 1.1 kg/h) was 2 (50-74% inhibition) and the “Plant Response Index (F)” value (Pennsylvania Smartweed; Table III, 2 WAT, 5.6 kg/h) was 3 (75-99% inhibition). The “Plant Response Index (F)” value (Pennsylvania Smartweed; Table III, 2 WAT, .28 kg/h) was 2 (50-74% inhibition), the “Plant Response Index (F)” value (Pennsylvania Smartweed; Table III, 4 WAT, 1.1 kg/h) was 2 (50-74% inhibition) and the “Plant Response Index (F)” value (Pennsylvania Smartweed; Table III, 4 WAT, 5.6 kg/h) was 3 (75-99% inhibition). For the same compound, the “Plant Response Index (F)” value (Pennsylvania Smartweed; Table III, 4 WAT, .28 kg/h) was 2 (50-74% inhibition), the “Plant Response Index (J)” value (Downy Brome; Table II, 2 WAT, 5.6 kg/h) was 0 (0-24% inhibition) and the “Plant Response Index (J)” value (Downy Brome; Table II, 2 WAT, 11.2 kg/h) was 0 (0-24% inhibition). For the same compound, the “Plant Response Index (J)” value (Downy Brome; Table II, 4 WAT, 5.6 kg/h) was 1 (25-49% inhibition), the “Plant Response Index (J)” value (Downy Brome; Table II, 4 WAT, 11.2 kg/h) was 1 (25-49% inhibition) and the “Plant Response Index (J)” value (Downy Brome; Table III, 2 WAT, 1.1 kg/h) was 1 (25-49% inhibition). For the same compound, the “Plant Response Index (J)” value (Downy Brome; Table III, 2 WAT, 5.6 kg/h) was 1 (25-49% inhibition), the “Plant Response Index (J)” value (Downy Brome; Table III, 2 WAT, .28 kg/h) was 1 (25-49% inhibition) and the “Plant Response Index (J)” value (Downy Brome; Table III, 4 WAT, 1.1 kg/h) was 1 (25-49% inhibition). The “Plant Response Index (J)” value (Downy Brome; Table III, 4 WAT, 5.6 kg/h) was 1 (25-49% inhibition), the “Plant Response Index (J)” value (Downy Brome; Table III, 4 WAT, .28 kg/h) was 0 (0-24% inhibition) and the “Plant Response Index (C)” value (Velvetleaf; Table II, 2 WAT, 5.6 kg/h) was 0 (0-24% inhibition). For the same compound, the “Plant Response Index (C)” value (Velvetleaf; Table II, 2 WAT, 11.2 kg/h) was 1 (25-49% inhibition), the “Plant Response Index (C)” value (Velvetleaf; Table II, 4 WAT, 5.6 kg/h) was 1 (25-49% inhibition) and the “Plant Response Index (C)” value (Velvetleaf; Table II, 4 WAT, 11.2 kg/h) was 2 (50-74% inhibition). For the same compound, the “Plant Response Index (C)” value (Velvetleaf; Table III, 2 WAT, 1.1 kg/h) was 2 (50-74% inhibition), the “Plant Response Index (C)” value (Velvetleaf; Table III, 2 WAT, 5.6 kg/h) was 3 (75-99% inhibition) and the “Plant Response Index (C)” value (Velvetleaf; Table III, 2 WAT, .28 kg/h) was 1 (25-49% inhibition). For the same compound, the “Plant Response Index (C)” value (Velvetleaf; Table III, 4 WAT, 1.1 kg/h) was 2 (50-74% inhibition), the “Plant Response Index (C)” value (Velvetleaf; Table III, 4 WAT, 5.6 kg/h) was 4 (100% inhibition) and the “Plant Response Index (C)” value (Velvetleaf; Table III, 4 WAT, .28 kg/h) was 2 (50-74% inhibition). The “Plant Response Index (K)” value (Barnyardgrass; Table II, 2 WAT, 5.6 kg/h) was 2 (50-74% inhibition), the “Plant Response Index (K)” value (Barnyardgrass; Table II, 2 WAT, 11.2 kg/h) was 2 (50-74% inhibition) and the “Plant Response Index (K)” value (Barnyardgrass; Table II, 4 WAT, 5.6 kg/h) was 2 (50-74% inhibition). The “Plant Response Index (K)” value (Barnyardgrass; Table II, 4 WAT, 11.2 kg/h) was 3 (75-99% inhibition), the “Plant Response Index (K)” value (Barnyardgrass; Table III, 2 WAT, 1.1 kg/h) was 2 (50-74% inhibition) and the “Plant Response Index (K)” value (Barnyardgrass; Table III, 2 WAT, 5.6 kg/h) was 2 (50-74% inhibition). The “Plant Response Index (K)” value (Barnyardgrass; Table III, 2 WAT, .28 kg/h) was 1 (25-49% inhibition), the “Plant Response Index (K)” value (Barnyardgrass; Table III, 4 WAT, 1.1 kg/h) was 2 (50-74% inhibition) and the “Plant Response Index (K)” value (Barnyardgrass; Table III, 4 WAT, 5.6 kg/h) was 3 (75-99% inhibition). The “Plant Response Index (K)” value (Barnyardgrass; Table III, 4 WAT, .28 kg/h) was 1 (25-49% inhibition), the “Plant Response Index (O)” value (Rice; 2 WAT, 1.1 kg/h) was 0 (0-24% inhibition) and the “Plant Response Index (O)” value (Rice; 2 WAT, 5.6 kg/h) was 1 (25-49% inhibition). The “Plant Response Index (O)” value (Rice; 2 WAT, .28 kg/h) was 1 (25-49% inhibition), the “Plant Response Index (O)” value (Rice; 4 WAT, 1.1 kg/h) was 1 (25-49% inhibition) and the “Plant Response Index (O)” value (Rice; 4 WAT, 5.6 kg/h) was 2 (50-74% inhibition). For the same compound, the “Plant Response Index (O)” value (Rice; 4 WAT, .28 kg/h) was 0 (0-24% inhibition), the “Plant Response Index (A)” value (Canada Thistle; 2 WAT, 5.6 kg/h) was 1 (25-49% inhibition) and the “Plant Response Index (A)” value (Canada Thistle; 2 WAT, 11.2 kg/h) was 1 (25-49% inhibition). For the same compound, the “Plant Response Index (A)” value (Canada Thistle; 4 WAT, 5.6 kg/h) was 1 (25-49% inhibition), the “Plant Response Index (A)” value (Canada Thistle; 4 WAT, 11.2 kg/h) was 2 (50-74% inhibition) and the “Plant Response Index (S)” value (Panicum Spp; 2 WAT, 1.1 kg/h) was 1 (25-49% inhibition). The “Plant Response Index (S)” value (Panicum Spp; 2 WAT, 5.6 kg/h) was 3 (75-99% inhibition), the “Plant Response Index (S)” value (Panicum Spp; 2 WAT, .28 kg/h) was 1 (25-49% inhibition) and the “Plant Response Index (S)” value (Panicum Spp; 4 WAT, 1.1 kg/h) was 2 (50-74% inhibition). For the same compound, the “Plant Response Index (S)” value (Panicum Spp; 4 WAT, 5.6 kg/h) was 3 (75-99% inhibition), the “Plant Response Index (S)” value (Panicum Spp; 4 WAT, .28 kg/h) was 1 (25-49% inhibition) and the “Plant Response Index (T)” value (Large Crabgrass; 1.1 kg/h) was 3 (75-99% inhibition). The “Plant Response Index (T)” value (Large Crabgrass; 5.6 kg/h) was 4 (100% inhibition).
